# Assay results reported in patent US7855200B2, “Method for treatment of gastric ulcers and ulcers induced by aspirin” (Council of Scientific and Industrial Research, priority 2006, dated 2010).
# Where “and” joins values, the source holds several entries; their conditions need not be identical. Equal entries are not always repeated.
# Experiments:
# Format in all cases: in vivo, albino rats
# [1] = system: gastric ulcers induced by aspirin, ethanol, stress and pylorus ligation; experiment: Antigastric ulcer screening by four different models (statements in words); settings: summary statement
# From the text: The compounds taken under study for antigastric ulcer screening by four different models were selected using experimental albino rats: • 1. Aspirin induced gastric ulceration • 2. Pylorus ligated gastric ulceration • 3. Ethanol induced gastric ulceration • 4. Stress induced gastric ulceration
# The commercially available drug ranitidine (sigma), Omeprazole (sigma) and sucralfate (Merck) were used as reference standard in experimental models. The Tween-80 (SD fine chemicals) was used as vehicle for the administration of the drug, which is used as control.
# [2] = system: gastric ulceration in cold restraint rats; experiment: Cold restraint (stress) induced ulcers; set-up: Ulcer index Mean(SE): scale not given here; settings: rats, 4° C. for 2 hours
# Summary of the method: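 Albino rats, fasted 48 h with free water, dosed orally with compound at 25 mg/kg or at 50, 25, 15, 10 and 5 mg/kg in 1% Tween 80 vehicle. Water removed 1 h before restraint at 4° C for 2 h. Sacrificed 2 h after stress; stomachs opened along greater curvature and scored as mean ulcer index.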
# [3] = system: ethanol induced gastric ulcers; experiment: Ethanol induced ulcers; settings: rats, ethanol challenge; for Acidity Total mEg / Gastric content / pH: 4 hours after pylorus ligation
# Summary of the method: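 Rats in groups of 6, fasted 48 h, given Tween 80 (1%) vehicle, reference drugs, or test compounds at 25 mg/kg; lesions induced 1 h after ethanol challenge. Pylorus ligated under ether; 4 h later gastric contents centrifuged and total acid titrated with 0.01N NaOH.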
smiles,measurement,setting,value
"COC(=O)C1OC(Oc2cc3oc(-c4ccccc4)cc(=O)c3cc2OC)C(O)C(O)C1O (stereo not drawn) [OA-5, 3,4,5-trihydroxy-6-(6-methoxy-4-oxo-2-phenyl-4-H-chromen-7-yoloxy) tetrahydro-pyran-2-carboxylicacid methyl ester]",antiulcer activity (in words),[1]; listed as Oroxyloside methyl ester,excellent potent molecule
same,antiulcer activity (in words),[1]; listed as oroxyloside methyl ester,potent activity
same,Inhibition %,[2]; 5 mg/kg per orally,31.55%
same,Ulcer index Mean(SE),[2]; 5 mg/kg per orally,27.5
same,Inhibition %,[2]; 10 mg/kg per orally,41.92%
same,Ulcer index Mean(SE),[2]; 10 mg/kg per orally,23.33
same,Inhibition %,[2]; 15 mg/kg per orally,50.14%
same,Ulcer index Mean(SE),[2]; 15 mg/kg per orally,19.99
same,Inhibition %,[2]; 25 mg/kg per orally,75.45%
same,Ulcer index Mean(SE),"[2]; 25 mg/kg per orally, 25 mg/kg",9.997 and 9.99
same,Inhibition %,[2]; 50 mg/kg per orally,78.22%
same,Ulcer index Mean(SE),[2]; 50 mg/kg per orally,8.75
same,Inhibition %,[3]; 5 mg/kg,30.01%
same,Ulcer index Mean(SE),[3]; 5 mg/kg,46.66 (±0.80)
same,Acidity Total mEg,[3]; 5 mg/kg,42.66 (±3.95) m Eg
same,Gastric content,[3]; 5 mg/kg,4.0 (±0.45)
same,pH,[3]; 5 mg/kg,3.5 (±0.40)
same,Inhibition %,[3]; 10 mg/kg,35.00%
same,Ulcer index Mean(SE),[3]; 10 mg/kg,43.33 (±5.40)
same,Acidity Total mEg,[3]; 10 mg/kg,31.33 (±1.36) m Eg
same,Gastric content,[3]; 10 mg/kg,4.2 (±0.07)
same,Inhibition %,[3]; 15 mg/kg,60.61%
same,Ulcer index Mean(SE),[3]; 15 mg/kg,26.66 (±4.71)
same,Acidity Total mEg,[3]; 15 mg/kg,29.66 (±1.36) m Eg
same,Gastric content,[3]; 15 mg/kg,4.0 (±0.82)
same,pH,[3]; 15 mg/kg,4.5 (±0.13)
same,Inhibition %,[3]; 25 mg/kg,82.50%
same,Ulcer index Mean(SE),[3]; 25 mg/kg,11.66 (±4.47)
same,Acidity Total mEg,[3]; 25 mg/kg,12.40 (±2.30) mEg
same,Gastric content,[3]; 25 mg/kg,5.5 (±0.30)
same,pH,[3]; 25 mg/kg,6.81 (±0.26)
same,Inhibition %,[3]; 50 mg/kg,85.00%
same,Ulcer index Mean(SE),[3]; 50 mg/kg,10.00 (±6.23)
same,Acidity Total mEg,[3]; 50 mg/kg,18.25 (±7.10) mEg
same,Gastric content,[3]; 50 mg/kg,7.4 (±0.72)
same,pH,[3]; 50 mg/kg,4.95 (±0.43)
